Target: T1, rat mGluR5 (Rattus norvegicus, UniProt P31424)
T1 construct: expressed in transfected cells; host or cells: CHO cells (CHO-rat mGluR5 line, kept under Geneticin selection)
Test: Calcium mobilization flux (FLIPR) in CHO-rat mGluR5 cells in the presence of glutamate
Type: cell-based
Conditions: 10 uM glutamate, Fluo 4 calcium flux, mean of 4 experiments
Procedure: 40,000 CHO-rat mGluR5 cells/well were plated into 96 well plate (Costar 3409, Black, clear bottom, 96 well, tissue culture treated) for an overnight incubation in Dulbecco's Modified Eagle's Medium (DMEM, pH 7.4) and supplemented with glutamine, 10% FBS, 1% Pen/Strep, and 500 ug/mL Geneticin. CHO-rat mGluR5 cells were washed and treated with Optimem medium and were incubated for 1-4 hours prior to loading cells. […]
The plates containing the CHO-rat mGluR5 cells were transferred to a FLIPR for the assessment of calcium mobilization flux in the presence of glutamate and in the presence or absence of test compounds. After monitoring fluorescence for 15 seconds to establish a baseline, DMSO solutions containing various concentrations of the test compound diluted in loading buffer (0.05 mL of 4× dilutions for the competition curves) were added to the cell plate and fluorescence was monitored for 2 minutes. […] Plate fluorescence was then monitored for an additional 60 seconds after agonist addition. […] In each experiment, fluorescence was monitored as a function of time and the data analyzed using Microsoft Excel and GraphPad Prism. […] In each experiment, each data point was determined at least two times.

T1 sequence (P31424 21-1203): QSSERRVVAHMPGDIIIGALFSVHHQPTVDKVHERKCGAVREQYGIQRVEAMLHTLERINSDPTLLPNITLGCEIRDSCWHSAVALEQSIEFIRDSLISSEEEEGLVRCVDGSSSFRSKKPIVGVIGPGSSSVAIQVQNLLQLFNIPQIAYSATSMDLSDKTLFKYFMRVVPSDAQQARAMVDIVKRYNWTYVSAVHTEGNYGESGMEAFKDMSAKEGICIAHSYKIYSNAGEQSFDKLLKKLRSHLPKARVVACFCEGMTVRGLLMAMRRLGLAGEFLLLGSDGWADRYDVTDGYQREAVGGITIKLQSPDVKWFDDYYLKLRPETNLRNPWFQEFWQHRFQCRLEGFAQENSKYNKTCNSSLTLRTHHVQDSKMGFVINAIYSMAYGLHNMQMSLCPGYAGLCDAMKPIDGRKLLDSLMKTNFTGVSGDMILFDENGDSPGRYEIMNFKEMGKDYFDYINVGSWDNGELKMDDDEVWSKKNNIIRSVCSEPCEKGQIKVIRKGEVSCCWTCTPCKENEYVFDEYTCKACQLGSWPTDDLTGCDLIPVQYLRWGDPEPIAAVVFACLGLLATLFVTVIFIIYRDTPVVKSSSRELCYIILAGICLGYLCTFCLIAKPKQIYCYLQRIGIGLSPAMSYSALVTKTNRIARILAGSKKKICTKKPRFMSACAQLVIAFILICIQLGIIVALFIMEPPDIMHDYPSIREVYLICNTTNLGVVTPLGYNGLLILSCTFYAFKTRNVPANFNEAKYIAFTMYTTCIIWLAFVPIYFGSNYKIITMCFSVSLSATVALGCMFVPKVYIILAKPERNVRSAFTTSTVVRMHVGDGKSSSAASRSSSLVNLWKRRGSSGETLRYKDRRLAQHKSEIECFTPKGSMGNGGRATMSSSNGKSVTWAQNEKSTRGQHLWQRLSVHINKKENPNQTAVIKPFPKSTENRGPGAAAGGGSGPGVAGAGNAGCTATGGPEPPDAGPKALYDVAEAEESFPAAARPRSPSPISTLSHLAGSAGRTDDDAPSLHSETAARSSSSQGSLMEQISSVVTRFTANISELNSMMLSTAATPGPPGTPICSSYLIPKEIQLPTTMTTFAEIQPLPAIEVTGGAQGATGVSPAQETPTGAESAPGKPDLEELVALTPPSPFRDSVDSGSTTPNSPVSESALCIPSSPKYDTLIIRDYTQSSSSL

IC50: 110 ± 17.9 nM
Structure (SMILES): O=C(C#Cc1ccccc1)N1CC(Nc2ncccc2[N+](=O)[O-])C1 [AAB(Ib)]
